Measurements reported in US11453677B2 (priority 2016, dated 2022).

Tests used:
Assay in all cases: cells
Type in all cases: cell-based
[1] = test system: influenza A virus minigenome (PB2, PB1, PA, NP) RNP_Alaska in 293T cells; details: HEK-293T, 48 h, read-out: RNP_Alaska EC50
[2] = test system: influenza A virus minigenome (PB2, PB1, PA, NP) RNP_CAL in 293T cells; details: HEK-293T, 48 h, read-out: RNP_CAL_EC50
[3] = test system: influenza virus minigenome (PB2, PB1, PA, NP) RNP_Hubei in 293T cells; details: unidentified influenza virus, HEK-293T, 48 h, read-out: RNP_Hubei EC50

Structure (SMILES)	EC50 [1] [nM]	EC50 [2] [nM]	EC50 [3] [nM]
CSc1cccc([C@H](c2ccc(F)cc2)[C@H]2Cn3ccnc3-c3c(O)c(=O)cnn32)c1 [Example 28, (S)-6-((S)-(4-fluorophenyl)(3-(methylthio)phenyl)methyl)-11-hydroxy-5,6-dihydro-10H-imidazo[2′,1′:3,4]pyrazino[1,2-b]pyridazin-10-one]	72	81	78
O=c1cnn2c(c1O)-c1nccn1C[C@@H]2[C@@H](c1ccc(F)cc1)c1ccccc1Cl [Example 29, (S)-6-((S)-(2-chlorophenyl)(4-fluorophenyl)methyl)-11-hydroxy-5,6-dihydro-10H-imidazo[2′,1′:3,4]pyrazino[1,2-b]pyridazin-10-one]	70	72	58
O=c1cnn2c(c1O)-c1nccn1C[C@@H]2[C@@H](c1ccc(F)cc1)c1cccc(Cl)c1 [Example 31, (S)-6-((S)-(3-chlorophenyl)(4-fluorophenyl)methyl)-11-hydroxy-5,6-dihydro-10H-imidazo[2′,1′:3,4]pyrazino[1,2-b]pyridazin-10-one]	34	37	64
O=c1cnn2c(c1O)-c1nccn1C[C@@H]2[C@@H](c1ccc(F)cc1)c1ccc(C(F)(F)F)cc1 [Example 32, (S)-6-((R)-(4-fluorophenyl)(4-(trifluoromethyl)phenyl)methyl)-11-hydroxy-5,6-dihydro-10H-imidazo[2′,1′:3,4]pyrazino[1,2-b]pyridazin-10-one]	280	250	720
O=c1cnn2c(c1O)-c1nccn1C[C@@H]2[C@@H](c1ccc(F)cc1)c1ccc(Cl)cc1 [Example 33, (S)-6-((S)-(4-chlorophenyl)(4-fluorophenyl)methyl)-11-hydroxy-5,6-dihydro-10H-imidazo[2′,1′:3,4]pyrazino[1,2-b]pyridazin-10-one]	87	110	270
O=c1cnn2c(c1O)-c1nccn1C[C@@H]2[C@@H](c1ccc(F)cc1)c1cc(F)cc(F)c1 [Example 34, (S)-6-((S)-(3,5-difluorophenyl)(4-fluorophenyl)methyl)-11-hydroxy-5H-imidazo[2′,1′:3,4]pyrazino[1,2-b]pyridazin-10(6H)-one]	33	25	34
Cc1ccccc1[C@H](c1ccc(F)cc1Br)[C@H]1Cn2ccnc2-c2c(O)c(=O)cnn21 [Example 35, (S)-6-((R)-(2-bromo-4-fluorophenyl)(o-tolyl)methyl)-11-hydroxy-5,6-dihydro-10H-imidazo[2′,1′:3,4]pyrazino[1,2-b]pyridazin-10-one]	98	50	110
O=c1cnn2c(c1O)-c1nccn1C[C@@H]2[C@H](c1cccc(F)c1)c1ccc(F)cc1Br [Example 36, (S)-6-((R)-(2-bromo-4-fluorophenyl)(3-fluorophenyl)methyl)-11-hydroxy-5,6-dihydro-10H-imidazo[2′,1′:3,4]pyrazino[1,2-b]pyridazin-10-one]	21	27	63
Cc1cccc([C@H](c2ccc(F)cc2)[C@H]2Cn3ccnc3-c3c(O)c(=O)cnn32)c1 [Example 38, (S)-6-((S)-(4-fluorophenyl)(m-tolyl)methyl)-11-hydroxy-5,6-dihydro-10H-imidazo[2′,1′:3,4]pyrazino[1,2-b]pyridazin-10-one]	43	49	97
O=c1cnn2c(c1O)-c1nccn1C[C@@H]2[C@H](c1ccc(F)cc1)c1ccc(F)cc1Br [Example 39, (S)-6-((R)-(2-bromo-4-fluorophenyl)(4-fluorophenyl)methyl)-11-hydroxy-5,6-dihydro-10H-imidazo[2′,1′:3,4]pyrazino[1,2-b]pyridazin-10-one]	25	33	53
Cc1ccccc1[C@H](c1ccc(F)cc1)[C@H]1Cn2ccnc2-c2c(O)c(=O)cnn21 [Example 40, (S)-6-((S)-(4-fluorophenyl)(o-tolyl)methyl)-11-hydroxy-5,6-dihydro-10H-imidazo[2′,1′:3,4]pyrazino[1,2-b]pyridazin-10-one]	20	32	35
CS(=O)(=O)c1cccc([C@H](c2ccc(F)cc2)[C@H]2Cn3ccnc3-c3c(O)c(=O)cnn32)c1 [Example 42, (S)-6-((S)-(4-fluorophenyl)(3-(methylsulfonyl)phenyl)methyl)-11-hydroxy-5,6-dihydro-10H-imidazo[2′,1′:3,4]pyrazino[1,2-b]pyridazin-10-one]	3600	2800	3800
N#Cc1cccc([C@H](c2ccc(F)cc2)[C@H]2Cn3ccnc3-c3c(O)c(=O)cnn32)c1 [Example 43, 3-((S)-(4-fluorophenyl)((S)-11-hydroxy-10-oxo-5,6-dihydro-10H-imidazo[2′,1′:3,4]pyrazino[1,2-b]pyridazin-6-yl)methyl)benzonitrile]	140	39	170
N#Cc1ccccc1[C@H](c1ccc(F)cc1)[C@H]1Cn2ccnc2-c2c(O)c(=O)cnn21 [Example 44, 2-((S)-(4-fluorophenyl)((S)-11-hydroxy-10-oxo-5,6-dihydro-10H-imidazo[2′,1′:3,4]pyrazino[1,2-b]pyridazin-6-yl)methyl)benzonitrile]	550	300	310
N#Cc1ccc([C@H](c2ccc(F)cc2)[C@H]2Cn3ccnc3-c3c(O)c(=O)cnn32)cc1 [Example 45, 4-((R)-(4-fluorophenyl)((S)-11-hydroxy-10-oxo-5,6-dihydro-10H-imidazo[2′,1′:3,4]pyrazino[1,2-b]pyridazin-6-yl)methyl)benzonitrile]	76	42	160
N#Cc1cccc([C@H](c2cccc(F)c2)[C@H]2Cn3ccnc3-c3c(O)c(=O)cnn32)c1 [Example 46, 3-((R)-(3-fluorophenyl)((S)-11-hydroxy-10-oxo-5,6-dihydro-10H-imidazo[2′,1′:3,4]pyrazino[1,2-b]pyridazin-6-yl)methyl)benzonitrile]	150	64	190
O=c1cnn2c(c1O)-c1nc(Br)c(Br)n1C[C@@H]2C(c1ccc(F)cc1)c1ccc(F)cc1 [Example 48, (S)-6-(bis(4-fluorophenyl)methyl)-2,3-dibromo-11-hydroxy-5,6-dihydro-10H-imidazo[2′,1′:3,4]pyrazino[1,2-b]pyridazin-10-one]	5000	4300	12000
N#Cc1cnc2n1C[C@H](C(c1ccc(F)cc1)c1ccc(F)cc1)n1ncc(=O)c(O)c1-2 [Example 49, (S)-6-(bis(4-fluorophenyl)methyl)-11-hydroxy-10-oxo-5,6-dihydro-10H-imidazo[2′,1′:3,4]pyrazino[1,2-b]pyridazine-3-carbonitrile]	870	820	560
O=c1cnn2c(c1O)-c1ncc(CO)n1C[C@@H]2C(c1ccc(F)cc1)c1ccc(F)cc1 [Example 50, (S)-6-(bis(4-fluorophenyl)methyl)-11-hydroxy-3-(hydroxymethyl)-5,6-dihydro-10H-imidazo[2′,1:3,4]pyrazino[1,2-b]pyridazin-10-one]	430	100	700
Cc1ccccc1[C@H](c1ccc(F)cc1)[C@H]1Cn2c(CO)cnc2-c2c(O)c(=O)cnn21 [Example 51, (S)-6-((S)-(4-fluorophenyl)(o-tolyl)methyl)-11-hydroxy-3-(hydroxymethyl)-5,6-dihydro-10H-imidazo[2′,1′:3,4]pyrazino[1,2-b]pyridazin-10-one]	230	90	160
O=c1ccn2c(c1O)-c1ncc(-c3cn[nH]c3)n1C[C@@H]2C(c1ccccc1)c1ccccc1 [Example 52, (S)-6-benzhydryl-11-hydroxy-3-(1H-pyrazol-4-yl)-5,6-dihydro-10H-imidazo[1,2-a]pyrido[2,1-c]pyrazin-10-one]	5100	8300	970
O=c1ccn2c(c1O)-c1ncc(-c3ccccc3)n1C[C@@H]2C(c1ccccc1)c1ccccc1 [Example 53, (S)-6-benzhydryl-11-hydroxy-3-phenyl-5H-imidazo [1,2-a] pyrido[2,1-c]pyrazin-10(6H)-one]	540	3000	190
CC(O)c1cnc2n1C[C@H](C(c1ccccc1)c1ccccc1)n1ccc(=O)c(O)c1-2 (stereo partly drawn) [Example 55, (6S)-6-benzhydryl-11-hydroxy-3-(1-hydroxyethyl)-5H-imidazo [1,2-a]pyrido[2,1-c]pyrazin-10(6H)-one]	2600	1700	6600
COCc1cnc2n1C[C@H](C(c1ccccc1)c1ccccc1)n1ccc(=O)c(O)c1-2 [Example 56, (S)-6-benzhydryl-11-hydroxy-3-(methoxymethyl)-5H-imidazo [1,2-a]pyrido[2,1-c]pyrazin-10(6H)-one]	280	92	270
O=c1ccn2c(c1O)-c1ncc(C(F)F)n1C[C@@H]2C(c1ccccc1)c1ccccc1 [Example 57, (S)-6-benzhydryl-3-(difluoromethyl)-11-hydroxy-5H-imidazo[1,2-a]pyrido[2,1-c]pyrazin-10(6H)-one]	220	180	580
O=c1ccn2c(c1O)-c1ncc(CN3CCSCC3)n1C[C@@H]2C(c1ccccc1)c1ccccc1 [Example 62, (S)-6-benzhydryl-11-hydroxy-3-(thiomorpholinomethyl)-5,6-dihydro-10H-imidazo[1,2-a]pyrido[2,1-c]pyrazin-10-one]	1900	640	1500
